According to patent publication US20260167641A1, “CRYSTAL FORM OF IMIDAZOPYRAZINE DERIVATIVE, PREPARATION METHOD THEREFOR AND USE THEREOF” (TRANSTHERA SCIENCES (NANJING), INC., priority 2022, published 2026):

Assay: Long-term stability test
Assay type: physicochemical
Protocol: The samples were stored under the conditions of 25° C./60% RH (relative humidity) and 30° C./65% RH (relative humidity), respectively, and then collected at 1M, 2M, 3M, 6M, 9M, 12M, and 18M. Additionally, the samples were stored under the conditions of 40° C./75% RH (relative humidity) and then collected at 1M, 2M, 3M, and 6M. The appearance, total impurities, content, moisture, and crystal form changes (at 3M, 6M, and 12M) were examined and compared with the results on day 0.

Appearance (0 day): Yellow solid
Content % (0 day): 98.3%
Crystal form XRPD (0 day): Crystal form II
Moisture % (0 day): 0.23%
Total impurities % (0 day): 1.1%
Changes in appearance, total impurities, content, and moisture (6 months at 40° C./75% RH, 18 months at 25° C./60% RH and 30° C./65% RH): no significant changes
Appearance (25° C./60% RH, 1M): Yellow solid
Content % (25° C./60% RH, 1M): 98.2%
Moisture % (25° C./60% RH, 1M): 0.28%
Total impurities % (25° C./60% RH, 1M): 1.1%
Appearance (25° C./60% RH, 2M): Yellow solid
Content % (25° C./60% RH, 2M): 98.3%
Moisture % (25° C./60% RH, 2M): 0.16%
Total impurities % (25° C./60% RH, 2M): 1.2%
Appearance (25° C./60% RH, 3M): Yellow solid
Content % (25° C./60% RH, 3M): 98.4%
Crystal form XRPD (25° C./60% RH, 3M): Crystal form II
Moisture % (25° C./60% RH, 3M): 0.24%
Total impurities % (25° C./60% RH, 3M): 1.1%
Appearance (25° C./60% RH, 6M): Yellow solid
Content % (25° C./60% RH, 6M): 98.2%
Crystal form XRPD (25° C./60% RH, 6M): Crystal form II
Moisture % (25° C./60% RH, 6M): 0.16%
Total impurities % (25° C./60% RH, 6M): 1.1%
Appearance (25° C./60% RH, 9M): Yellow solid
Content % (25° C./60% RH, 9M): 98.5%
Moisture % (25° C./60% RH, 9M): 0.23%
Total impurities % (25° C./60% RH, 9M): 1.1%
Appearance (25° C./60% RH, 12M): Yellow solid
Content % (25° C./60% RH, 12M): 98.2%
Crystal form XRPD (25° C./60% RH, 12M): Crystal form II
Moisture % (25° C./60% RH, 12M): 0.12%
Total impurities % (25° C./60% RH, 12M): 1.1%
Appearance (25° C./60% RH, 18M): Yellow solid
Content % (25° C./60% RH, 18M): 98.9%
Moisture % (25° C./60% RH, 18M): 0.24%
Total impurities % (25° C./60% RH, 18M): 1.1%
Appearance (30° C./65% RH, 1M): Yellow solid
Content % (30° C./65% RH, 1M): 98.2%
Moisture % (30° C./65% RH, 1M): 0.24%
Total impurities % (30° C./65% RH, 1M): 1.1%
Appearance (30° C./65% RH, 2M): Yellow solid
Content % (30° C./65% RH, 2M): 97.9%
Moisture % (30° C./65% RH, 2M): 0.19%
Total impurities % (30° C./65% RH, 2M): 1.2%
Appearance (30° C./65% RH, 3M): Yellow solid
Content % (30° C./65% RH, 3M): 98.2%
Crystal form XRPD (30° C./65% RH, 3M): Crystal form II
Moisture % (30° C./65% RH, 3M): 0.30%
Total impurities % (30° C./65% RH, 3M): 1.1%
Appearance (30° C./65% RH, 6M): Yellow solid
Content % (30° C./65% RH, 6M): 98.1%
Crystal form XRPD (30° C./65% RH, 6M): Crystal form II
Moisture % (30° C./65% RH, 6M): 0.13%
Total impurities % (30° C./65% RH, 6M): 1.1%
Appearance (30° C./65% RH, 9M): Yellow solid
Content % (30° C./65% RH, 9M): 98.4%
Moisture % (30° C./65% RH, 9M): 0.24%
Total impurities % (30° C./65% RH, 9M): 1.1%
Appearance (30° C./65% RH, 12M): Yellow solid
Content % (30° C./65% RH, 12M): 98.2%
Crystal form XRPD (30° C./65% RH, 12M): Crystal form II
Moisture % (30° C./65% RH, 12M): 0.13%
Total impurities % (30° C./65% RH, 12M): 1.1%
Appearance (30° C./65% RH, 18M): Yellow solid
Content % (30° C./65% RH, 18M): 99.0%
Moisture % (30° C./65% RH, 18M): 0.17%
Total impurities % (30° C./65% RH, 18M): 1.1%
Content % (40° C./75% RH, 1M): 98.0%
Appearance (40° C./75% RH, 2M): Yellow solid
Content % (40° C./75% RH, 2M): 97.9%
Moisture % (40° C./75% RH, 2M): 0.18%
Total impurities % (40° C./75% RH, 2M): 1.2%
Appearance (40° C./75% RH, 3M): Yellow solid
Content % (40° C./75% RH, 3M): 98.1%
Crystal form XRPD (40° C./75% RH, 3M): Crystal form II
Moisture % (40° C./75% RH, 3M): 0.24%
Total impurities % (40° C./75% RH, 3M): 1.1%
Appearance (40° C./75% RH, 6M): Yellow solid
Content % (40° C./75% RH, 6M): 98.3%
Crystal form XRPD (40° C./75% RH, 6M): Crystal form II
Moisture % (40° C./75% RH, 6M): 0.13%
Total impurities % (40° C./75% RH, 6M): 1.1%
Appearance (40° C./75% RH, ^ IM): Yellow solid
Moisture % (40° C./75% RH, ^ IM): 0.24%
Total impurities % (40° C./75% RH, ^ IM): 1.1%
SMILES: Nc1nccn2c(C34CCC(NC(=O)CN5CCOCC5)(CC3)C4)nc(-c3ccc(C(=O)Nc4cc(C(F)(F)F)ccn4)cc3)c12 (single isomer, unassigned) [Crystal form II, 4-(8-amino-3-(4-(2-morpholinoacetamido)bicyclo[2.2.1]heptan-1-yl)imidazo[1,5-a]pyrazin-1-yl)-N-(4-(trifluoromethyl)pyridin-2-yl)benzamide]
